Assay results published in patent US20200061076A1, “METHODS OF TREATING LEUKODYSTROPHIES” (Ramot at Tel-Aviv University Ltd., priority 2017, published 2020).

How the values were obtained:
[1] = system: Hedgehog signaling pathway; assay: Luciferase activity assay in Shh-LIGHT2 cells (Gli1-controlled Firefly / constitutive Renilla); type: cell-based; conditions: for Firefly/Renilla luciferase expression (Hedgehog activation): absence of SAG, 24 hours (FIG. 11A); for SAG-induced HH activity (Firefly/Renilla luciferase): presence of SAG at 50 nM, 24 hours (FIG. 11B)
Procedure: Following lysis, luminescence was measured using the Dual Luciferase assay kit (Promega) followed by Firefly/Renilla luciferase ratio calculation for each treatment. Shown is average Firefly/Renilla luciferase activity ±SD of 3 independent experiments. *p<0.04. […] RNA was extracted from brains of P18 and P21 Mut and WT mice. cDNA was prepared by reverse transcription and subjected to qPCR using primers specific to Gli1 and GAPDH (SEQ ID NOs: 1-2 and 3-4, respectively). Relative quantity (RQ) was calculated by the ΔΔCt method. * p<0.02 [vs control (FIG. 11A) or vs SAG treated cells (FIG. 11B)].
Shh-LIGHT2 cells were seeded at a density of 10,000 cells per well in a 96-wells plate in growing medium. 24 hours post-plating the cells were incubated for additional 24 hours with the tested compounds in low serum media (0.5%) without G418 and Zeocin. Following lysis, Firefly and Renilla luminescence was measured using the Dual Luciferase assay kit (Promega) and a Veritas microplate luminometer (Turner Biosystems).
To test if p8C10 (H5), p8G7 (H9) and p9E6 (H15) compounds that were identified in the screen indeed affect Hedgehog signaling, SHH-lightII cells which stably express an inducible Firefly-Luciferase reporter gene under the control of Gli1 (a read-out of Hedgehog activation) and constitutive Renilla-Luciferase for normalization purposes (Taipale et al. 2000) were used. […] Therefore, p9E6 was identified as an agonist. SHH activation is required for the first steps of oligodendrocyte differentiation, while a subsequent decrease in Hedgehog activity is needed for complete differentiation and myelin production (Bouslama-Oueghlani et al. 2012) and re-myelination (Samanta et al. 2015).

[2] = system: Mut MEFs; assay: JC1 staining of intact and damaged mitochondria (mitochondrial membrane potential); type: cell-based, mouse; conditions: Mut MEFs
Procedure: Mut MEFs were treated or not for 6 hours with the indicated concentrations of p8G5 (blue), pre084 (purple), or NE-100 (yellow), washed and stained with Hoechst and JC1 for 30 minutes followed by image acquisition using In-Cell-Analyzer-2000. Shown is the % of red/green JC1 integrated intensity per cell relative to that in untreated WT cells of 2-4 independent experiments.
Following, the cells were washed, stained with Hoechst and JC-1 fluorescent dyes for 30 minutes, and subjected to image acquisition using In-Cell-Analyzer-2000. Shown is cellular content of damaged mitochondria (JC1 green channel, red bars), intact mitochondria (JC1 red channel, green bars) and damaged to intact mitochondria ratio (blue bars). Values of control (vehicle treated) cells was set to 100%.
Mut MEFs were treated with the indicated compounds at 10 μM for 24 hours followed by staining with fluorogenic dyes and image-based single-cell analysis. Shown is average effect on ROS level from at least 3-independent experiments ±SEM. […] Mut MEFs were incubated or not for 24 hours with 10 μM of the indicated compound, washed and stained with Crystal Violet. […] Mut MEFs were incubated or not for 24 hours with 10 μM of the indicated compound, washed and stained with JC1 and Hoechst followed by image-based single-cell analysis. Values of untreated cells were set as 100%. Shown is average of at least 3 independent experiments for each parameter compared to its matching control ±SEM. * p<0.05. Putative targets are indicated.
Mut MEFs were incubated or not for 24 hours with 10 μM of the indicated compounds, washed and stained with Hoechst and JC1 followed by image-based single-cell analysis. […] Mut MEFs were incubated or not with the indicated concentrations of the indicated compounds for 2 hours followed by addition of 50 ng/ml Tunicamycin (Tun) for additional 22 hours, stained with Crystal Violet followed by measurement of absorbance at 570 nm.
MEFs were seeded on 1% gelatin-coated 96-wells plate at a density of 5000 cells per well. 24 hours post-plating the cells were incubated with the tested compounds for additional 24 hours. Several DMSO-treated cells (control) were included in each plate at different locations. Following, the cells were stained by addition of fluorogenic dyes for further 30 minutes incubation at 37° C. […] CellROX was used together with Hoechst and CFSE; JC1 was used together with Hoechst. Cells were washed with Hank's balanced salt solution (HBSS) which was used for images acquisition using IN Cell Analyzer 2000 (GE Healthcare, Pitsburgh, Pa., USA). IN Cell Developer Toolbox 1.9.1 software (GE Healthcare) was used for analysis which included cells segmentation using Hoechst and/or CFSE signals. For analysis of JC1 staining, integrated intensity of green and red emissions were used for detection of damaged and intact mitochondria, respectively.

[3] = system: Mut MEFs; assay: Oxygen consumption (Seahorse XF Cell Mito Stress Test), MEFs; type: cell-based, mouse; conditions: for basal respiration and ATP-linked respiration per cell (OCR): 6 hours, normalized to biomass (FIGS. 7A-B)
Procedure: Mut MEFs were treated or not for 6 hours with the indicated concentrations of the indicated Sig-1R binders. Oxygen consumption was measured in a XF96 Extracellular Flux Analyzer using the Seahorse XF Cell Mito Stress Test Kit. The Basal respiration (FIG. 7A) and ATP-linked respiration (FIG. 7B) data were normalized to biomass as determined by Crystal Violet staining.
Mut MEFs were treated or not for 6 hours with the indicated concentrations of the indicated Sig-1R binders. Oxygen consumption was measured in a XF96 Extracellular Flux Analyzer using the Seahorse XF Cell Mito Stress Test Kit. The Basal respiration (FIG. 8A), ATP-linked respiration (FIG. 8B) and maximal respiration (FIG. 8C) data was normalized to mtDNA content as detailed in FIG. 2.
(§1) The data were normalized to cell number, obtained by Crystal Violet staining, or to mtDNA content.

[4] = system: Mut MEFs; assay: Cell survival assay, Crystal violet staining, Mut MEFs; type: cell-based, mouse; conditions: for Survival (%) ± SEM Mut MEFs: 24 hours, untreated cells set to 100%
Procedure: (§2) Cells were seeded on 96-wells plate at a density of 5000 cells per well. Astrocytes were seeded following coating with 0.001% PDL.

[5] = system: WT astrocytes; assay: Cell survival assay, Crystal violet staining, WT astrocytes; type: cell-based, mouse; conditions: 24 hours, untreated cells set to 100%
Procedure: as §2

[6] = system: Mut MEFs; assay: mtDNA quantification (qPCR of mitochondrial 12S rRNA and nuclear 18S rRNA genes), MEFs; type: cell-based, mouse
Procedure: DNA extracted from WT and Mut MEFs that were treated or not for 6 hours with 0.1 μM, 1 μM or 10 μM of p8G5 (blue), Pre084 (known SIG-1R agonist, purple), pridopidine (known SIG-1R agonists, green) or NE-100 (known SIG-1R antagonist, yellow) was subjected to qPCR analysis of mitochondrial 12S rRNA and nuclear 18S rRNA genes.

[7] = system: Mut MEFs; assay: TMRE staining, flow cytometry; type: cell-based, mouse
Procedure: Mut MEFs were treated or untreated with the indicated concentrations of the indicated Sig-1R binders for 6 hours, stained by TMRE for 30 minutes and analyzed by flow cytometry. Shown are flow cytometry histograms and bar graphs representing % mean TMRE fluorescence intensity relative to non-treated WT cells of a representative experiment.
MEFs were seeded at a density of 4×10^4 cells per well in a 24-wells plate. 24 hours post-plating the cells were incubated with the tested compounds for additional 6 hours followed by staining with 200 nM Tetra-Methyl-Rhodamine-Ethyl esterperchlorate (TMRE) (Abcam) for 30 minutes at 37° C. Cells were removed by trypsinyzation, washed and resuspended in PBS. 5-10×10^3 cells were analyzed by Stratedigm S1000EXi cell sorter and FlowJo software (FLOWJO, LLC, Ashland, Oreg., USA).

[8] = system: Mut astrocytes; assay: Cell survival assay, Crystal violet staining, Mut astrocytes; type: cell-based, mouse; conditions: 24 hours, untreated cells set to 100%
Procedure: as §2

[9] = system: Mut primary astrocytes; assay: Oxygen consumption (OCR), primary astrocytes; type: cell-based, mouse; conditions: 1 or 10 μm, 6 hours, normalized to cell number (FIGS. 17B-C)
Procedure: (§3) Shown is average relative quantity (RQ) of 2-6 independent experiments normalized to their untreated controls ±SEM. […] Values of ATP-linked respiration (FIG. 17B) and maximal respiration (FIG. 17C) were analyzed and normalized to cell number.
as §1

[10] = system: Mut MEFs; assay: Survival under Tunicamycin-induced ER stress, Crystal Violet, MEFs; conditions: 30 μM, 24 hours, Tunicamycin during the last 22 hours (FIGS. 9 and 18)
Procedure: Mut MEFs were treated or not for 24 hours with the indicated concentrations of the indicated Sig-1R binders in the presence of 0.1 μg/ml Tunicamycin (Tun) during the last 22 hours. Following, the cells were washed, fixated and stained with Crystal Violet (CV) followed by measurement of absorbance at 570 nm. Shown is average % of CV staining relative to cells not treated with tunicamycin nor Sig-1R binder ±SEM of 3 independent experiments. *p<0.03.
Following, the cells were washed, fixated and stained with Crystal Violet and absorbance at 570 nm was measured. Data is presented relative to cells of the corresponding genotype not treated with p8G5 nor Tunicamycin. Shown is average % of CV staining ±SEM of 3 independent experiments.
Mut MEFs were treated or not for 24 hours with 10, 20 or 30 μM of the indicated Sig-1R binders in the presence of 50 ng/ml Tunicamycin (Tun) during the last 22 hours. Following, the cells were washed, fixated and stained with Crystal Violet (CV) followed by measurement of absorbance at 570 nm. Shown is % of CV staining relative to cells not treated with tunicamycin nor Sig-1R binder ±SEM of 3 independent experiments, *p<0.05.
Mut MEFs were incubated or not with the indicated concentrations of the indicated compounds for 2 hours followed by addition of 50 ng/ml Tunicamycin (Tun) for additional 22 hours, stained with Crystal Violet followed by measurement of absorbance at 570 nm. Shown is average normalized to Tun-treated cells without any compound ±SEM of 3 independent experiments. * not significant; ** p<0.02; *** all values p<0.04.

[11] = system: Mut primary astrocytes; assay: mtDNA quantification, primary astrocytes; type: cell-based, mouse; conditions: 1 or 10 μm, 6 hours (FIG. 17A)
Procedure: as §3

Row | Structure (SMILES) | Firefly/Renilla luciferase expression (Hedgehog activation) [1] | SAG-induced HH activity (Firefly/Renilla luciferase) [1] | basal respiration and ATP-linked respiration per cell (OCR) [3] | Survival (%) ± SEM Mut MEFs ([4]; 0.1 μM) | Survival (%) ± SEM Mut MEFs ([4]; 1 μM) | Survival (%) ± SEM Mut MEFs ([4]; 10 μM) | Survival (%) ± SEM WT astrocytes ([5]; 1 μM) | Survival (%) ± SEM WT astrocytes ([5]; 10 μM) | Survival (%) ± SEM Mut astrocytes ([8]; 1 μM) | Survival (%) ± SEM Mut astrocytes ([8]; 10 μM) | Survival (%) ± SEM Mut astrocytes ([8]; 30 μM) | further results
1 | C=CCn1c(-c2cc(OC)c(OC)c(OC)c2)nc2ccccc21 [Hit H5, 1-allyl-2-(3,4,5-trimethoxyphenyl)-1H-benzimidazole] | not able to activate the pathway | inhibited the SAG-induced HH activity | – | – | – | – | – | – | – | – | – | –
2 | O=C(Cc1ccccc1)N1CCN(c2ccccc2F)CC1 [Hit H9, 1-(2-fluorophenyl)-4-(phenylacetyl)piperazine] | not able to activate the pathway | inhibited the SAG-induced HH activity | – | – | – | – | – | – | – | – | – | –
3 | C=CCn1c(C=Cc2ccccc2)nc2ccccc21 [Hit H15, 1-allyl-2-(2-phenylvinyl)-1H-benzimidazole] | able to activate the Hedgehog signaling pathway | – | – | – | – | – | – | – | – | – | – | effect on mitochondrial health (JC1, intact and damaged mitochondria) ([2]; 10 μM, 24 hours (FIG. 14C)): significant beneficial effect on mitochondrial health
4 | CCCN(CCC)CCc1ccc(OC)c(OCCc2ccccc2)c1 [NE100] | – | – | negative effect | 99 ± 2.1% | 98 ± 2.2% | 88 ± 3.5% | 86 ± 1.1% | 79 ± 2.2% | 94 ± 4.7% | 82 ± 4.3% | 65 ± 2.2% | Survival (%) ± SEM WT astrocytes ([5]; 0.1 μM): 98 ± 1.8%; mitochondrial content in Mut MEFs ([6]; 0.1 μM, 1 μM or 10 μM, 6 hours (FIG. 2)): increased mitochondrial content in a dose dependent manner; TMRE staining (mitochondrial membrane potential) ([7]; all concentrations, 6 hours (FIG. 5A)): negative effect on TMRE staining
5 | O=C(OCCN1CCOCC1)C1(c2ccccc2)CCCCC1 [pre084, 2-morpholin-4-ylethyl 1-phenylcyclohexane-1-carboxylate] | – | – | no effect | 100 ± 2.1% | 101 ± 3.5% | 99 ± 1.5% | 114 ± 7.9% | 95 ± 2.3% | 97 ± 0.5% | 93 ± 5.1% | 76 ± 4.9% | maximal respiration rate per mitochondrial content ([3]; 1 μM, 6 hours (FIG. 8C)): increased the maximal respiration capacity per mitochondria to the level of untreated WT cells; basal and ATP-linked respiration rate per mitochondrial DNA content ([3]; 6 hours (FIGS. 8A-B)): statistically significant increase; Survival (%) ± SEM Mut MEFs ([4]; 20 μM): 97 ± 2.1%; Survival (%) ± SEM Mut MEFs ([4]; 30 μM): 105 ± 1.9%; Survival (%) ± SEM Mut MEFs ([4]; 50 μM): 80 ± 2.8%; Survival (%) ± SEM Mut MEFs ([4]; 100 μM): 57 ± 2.2%; effect on survival of Mut cells ([4]; as high as 30 μM (FIG. 4, Table 3)): did not have any negative effect on the survival; Survival (%) ± SEM WT astrocytes ([5]; 30 μM): 82 ± 1.9%; mitochondrial content in Mut MEFs ([6]; 0.1 μM-1 μM, 6 hours incubation (FIG. 2)): lowered the abnormal high mitochondrial content; TMRE staining (mitochondrial membrane potential) ([7]; 1 μM, 6 hours (FIGS. 5A-B)): increased TMRE staining to a level above that of untreated WT cells; ATP-linked and maximal respiration in mutant astrocytes [9]: increased both ATP-linked and maximal respiration; survival of Mut MEFs under Tunicamycin ER-stress [10]: able to rescue mutant MEFs; mitochondrial content per cell in astrocytes [11]: no effect on mitochondrial content per cell; red/green JC1 signal (mitochondria with high to low membrane potential) ([2]; 1 μM and 10 μM, 6 hours (FIG. 6)): increased the ratio between the content of mitochondria with high to low membrane potential
